Results published in patent US20220125765A1, “PHARMACEUTICAL COMBINATIONS COMPRISING MEBENDAZOLE AND A STRONG OR MODERATE CYP1A2 INHIBITOR” (ZEPHAPHARM LTD, priority 2019, published 2022).
Where two headings read alike, the source gives them in different places.

Key:
[1] = Stability in human liver microsomes without and with cimetidine or furafylline (Example 4); type: in vitro ADME; details: human, liver microsomes, substrate 1 μM
Protocol: A minus cofactor control incubation was included for each compound tested where 0.1 M phosphate buffer pH 7.4 was added instead of NADPH (minus NADPH). […] The samples were analysed for mebendazole or phenacetin using LC-MS/MS.
A minus cofactor control incubation was included for each compound tested where 0.1 M phosphate buffer pH 7.4 was added instead of cofactor (minus NADPH). […] The samples were analysed for mebendazole or phenacetin using LC-MS/MS.

SXFO 678 = test: 2D monolayer CellTiter-Blue viability, osteosarcoma SXFO 678; type: cell-based; details: 72 h
Protocol: (§1) Seventeen compounds, including mebendazole (Batch no. […] Efficacy of compounds was assessed using CellTiter-Blue® Cell Viability Assay. Anti-tumor activity is expressed as absolute and relative IC50 and IC70 values, calculated by non-linear regression analysis.

SXFS RH-41 = test: 2D monolayer CellTiter-Blue viability, soft tissue sarcoma RH-41; type: cell-based; details: 72 h
Protocol: as §1

[2] = tested on: 6 ovarian cancer (OVXF) and 6 renal cancer (RXF) cell lines; test: 2D monolayer CellTiter-Blue viability, panel geometric mean (Example 10); type: cell-based; details: 12 cell lines, 72 h
Protocol: (§2) Mebendazole was tested in vitro across a panel of 12 tumor cell lines of ovarian and renal cancer by using a 2D monolayer assay. […] OVXF 899L and RXF 486L are P-gp expressing, multidrug resistant cell lines.
(§3) Anti-tumor activity is expressed as absolute and relative IC50/70 values, calculated by 4-parameter non-linear curve fit.

RXF 486L = test: 2D monolayer CellTiter-Blue viability, renal cancer RXF 486L (P-gp expressing, multidrug resistant); type: cell-based; details: for Test/Control (%) at Drug Concentration: 72 h; for IC50: RXF 486L
Protocol: as §2, §3

BCRP = target: T1, BCRP (Homo sapiens, UniProt Q9UNQ0); test: in vitro
T1 sequence (Q9UNQ0 1-655): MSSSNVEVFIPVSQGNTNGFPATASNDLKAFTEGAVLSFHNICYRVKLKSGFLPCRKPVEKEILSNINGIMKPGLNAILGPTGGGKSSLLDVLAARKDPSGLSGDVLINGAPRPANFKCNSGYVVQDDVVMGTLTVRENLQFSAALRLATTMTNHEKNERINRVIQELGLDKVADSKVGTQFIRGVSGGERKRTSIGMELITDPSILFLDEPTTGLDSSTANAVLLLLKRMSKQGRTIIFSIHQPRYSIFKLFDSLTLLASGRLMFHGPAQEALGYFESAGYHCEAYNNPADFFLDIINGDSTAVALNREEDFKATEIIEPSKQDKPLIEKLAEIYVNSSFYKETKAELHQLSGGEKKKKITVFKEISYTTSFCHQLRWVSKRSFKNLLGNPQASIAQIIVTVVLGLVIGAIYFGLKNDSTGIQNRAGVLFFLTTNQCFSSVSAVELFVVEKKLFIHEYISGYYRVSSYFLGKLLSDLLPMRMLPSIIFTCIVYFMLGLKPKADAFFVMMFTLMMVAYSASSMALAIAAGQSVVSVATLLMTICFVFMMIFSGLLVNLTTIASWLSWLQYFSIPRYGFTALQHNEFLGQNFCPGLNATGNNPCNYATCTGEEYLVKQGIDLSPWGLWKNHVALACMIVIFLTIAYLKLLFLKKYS
Source text: Bidirectional apparent permeability of test compound was quantified by LC-MS/MS and used to determine an efflux ratio.

[3] = pH 7.4, with cimetidine 30 μM, plus 30 μM cimetidine
[4] = pH 7.4, with cimetidine 100 μM, plus 100 μM cimetidine
[5] = pH 7.4, with cimetidine 300 μM, plus 300 μM cimetidine

In the case of COC(=O)Nc1nc2ccc(C(=O)c3ccccc3)cc2[nH]1 [Mebendazole, methyl N-(6-benzoyl-1H-benzimidazol-2-yl)carbamate], the half-life at 1 μM [1, 3] is reported as 1.28 h, the microsomal CLint at 1 μM [1, 3] is reported as 18 µL/min/mg and the half-life at 1 μM [1, 4] is reported as 1.3 h. It also gave a microsomal CLint at 1 μM [1, 4] of 17.8 µL/min/mg, a half-life at 1 μM [1, 5] of 1.54 h and a microsomal CLint at 1 μM [1, 5] of 15 µL/min/mg. For the same compound, the microsomal CLint at 1 μM ([1]; pH 7.4, with furafylline 3 μM, plus 3 μM furafylline) was 2.84 µL/min/mg, the microsomal CLint at 1 μM ([1]; pH 7.4, with furafylline 10 μM, plus 10 μM furafylline) was 0.232 µL/min/mg and the microsomal CLint at 1 μM ([1]; pH 7.4, with furafylline 30 μM, plus 30 μM furafylline) was 0.336 µL/min/mg. The half-life at 1 μM ([1]; pH 7.4, no inhibitor) was 1.04 h, the microsomal CLint at 1 μM ([1]; pH 7.4, no inhibitor) was 22.2 µL/min/mg and the “Test/Control (%) at Drug Concentration” value (SXFO 678; SXFO 678, 1.0E+00 μM) was 11%. For the same compound, the “Test/Control (%) at Drug Concentration” value (SXFO 678; SXFO 678, 1.0E+01 μM) was 28%, the “Test/Control (%) at Drug Concentration” value (SXFO 678; SXFO 678, 1.0E+02 μM) was 11% and the “Test/Control (%) at Drug Concentration” value (SXFO 678; SXFO 678, 1.0E−01 μM) was 64%. The “Test/Control (%) at Drug Concentration” value (SXFO 678; SXFO 678, 1.0E−02 μM) was 87%, the “Test/Control (%) at Drug Concentration” value (SXFO 678; SXFO 678, 3.2E+00 μM) was 22% and the “Test/Control (%) at Drug Concentration” value (SXFO 678; SXFO 678, 3.2E+01 μM) was 21%. The “Test/Control (%) at Drug Concentration” value (SXFO 678; SXFO 678, 3.2E−01 μM) was 14%, the “Test/Control (%) at Drug Concentration” value (SXFO 678; SXFO 678, 3.2E−02 μM) was 88% and the “Test/Control (%) at Drug Concentration” value (SXFO 678; SXFO 678, 3.2E−03 μM) was 90%. For the same compound, the “Test/Control (%) at Drug Concentration” value (SXFS RH-41; RH-41, 1.0E+00 μM) was 5%, the “Test/Control (%) at Drug Concentration” value (SXFS RH-41; RH-41, 1.0E+01 μM) was 6% and the “Test/Control (%) at Drug Concentration” value (SXFS RH-41; RH-41, 1.0E+02 μM) was 1%. The “Test/Control (%) at Drug Concentration” value (SXFS RH-41; RH-41, 1.0E−01 μM) was 81%, the “Test/Control (%) at Drug Concentration” value (SXFS RH-41; RH-41, 1.0E−02 μM) was 105% and the “Test/Control (%) at Drug Concentration” value (SXFS RH-41; RH-41, 3.2E+00 μM) was 5%. For the same compound, the “Test/Control (%) at Drug Concentration” value (SXFS RH-41; RH-41, 3.2E+01 μM) was 4%, the “Test/Control (%) at Drug Concentration” value (SXFS RH-41; RH-41, 3.2E−01 μM) was 17% and the “Test/Control (%) at Drug Concentration” value (SXFS RH-41; RH-41, 3.2E−02 μM) was 93%. For the same compound, the “Test/Control (%) at Drug Concentration” value (SXFS RH-41; RH-41, 3.2E−03 μM) was 95%, the “Geometric mean Abs. IC70” value [2] was 1515 nM and the “Geometric mean Rel. IC70” value [2] was 801 nM. The IC50 ([2]; read-out: Geometric mean Abs. IC50) was 941 nM, the IC50 ([2]; read-out: Geometric mean Rel. IC50) was 587 nM and the “Test/Control (%) at Drug Concentration” value (RXF 486L; RXF 486, 1.0E+00 μM) was 24%. For the same compound, the “Test/Control (%) at Drug Concentration” value (RXF 486L; RXF 486, 1.0E−01 μM) was 88%, the “Test/Control (%) at Drug Concentration” value (RXF 486L; RXF 486, 1.0E−02 μM) was 101% and the “Test/Control (%) at Drug Concentration” value (RXF 486L; RXF 486, 1.0E−03 μM) was 97%. The “Test/Control (%) at Drug Concentration” value (RXF 486L; RXF 486, 1.0E−04 μM) was 92%, the “Test/Control (%) at Drug Concentration” value (RXF 486L; RXF 486, 3.2E+00 μM) was 17% and the “Test/Control (%) at Drug Concentration” value (RXF 486L; RXF 486, 3.2E−01 μM) was 45%. The “Test/Control (%) at Drug Concentration” value (RXF 486L; RXF 486, 3.2E−02 μM) was 92%, the “Test/Control (%) at Drug Concentration” value (RXF 486L; RXF 486, 3.2E−03 μM) was 94% and the “Test/Control (%) at Drug Concentration” value (RXF 486L; RXF 486, 3.2E−04 μM) was 96%. The “Abs. IC70” value (RXF 486L; RXF 486, 72 h) was 545 nM, the “Rel. IC70” value (RXF 486L; RXF 486, 72 h) was 362 nM and the “Bot. (%)” value (RXF 486L; RXF 486, 72 h, curve fit) was 18%. The “Top (%)” value (RXF 486L; RXF 486, 72 h, curve fit) was 95%, the IC50 (RXF 486L; RXF 486, 72 h, read-out: Abs. IC50) was 292 nM and the IC50 (RXF 486L; RXF 486, 72 h, read-out: Rel. IC50) was 248 nM. The efflux ratio at 120 min, 10 μM (BCRP; Caco-2) was 1.23, the Papp A→B at 120 min, 10 μM (BCRP; Caco-2, Papp Mean) was 23.5 ×10⁻⁶ cm/s and the Papp B→A at 120 min, 10 μM (BCRP; Caco-2, Papp Mean) was 29 ×10⁻⁶ cm/s. For the same compound, the Papp A→B at 120 min, 10 μM (BCRP; Caco-2, Papp Rep 1) was 19.7 ×10⁻⁶ cm/s, the Papp B→A at 120 min, 10 μM (BCRP; Caco-2, Papp Rep 1) was 28.2 ×10⁻⁶ cm/s and the Papp A→B at 120 min, 10 μM (BCRP; Caco-2, Papp Rep 2) was 27.4 ×10⁻⁶ cm/s. The Papp B→A at 120 min, 10 μM (BCRP; Caco-2, Papp Rep 2) was 29.8 ×10⁻⁶ cm/s and the recovery at 120 min, 10 µM (BCRP; Caco-2, calculated mean % recovery values (range)) was 52 to 75.7%.
